Active and inactive are the calls of the source. No cut-off for these calls is given here.
Columns and labels:
[1] = target: T1, C-C chemokine receptor type 4 (Homo sapiens) (UniProt P51679); test: Antagonist activity at CCR4 (unknown origin) assessed as inhibition of chemotaxis at 10 uM
T1 sequence (whole entry): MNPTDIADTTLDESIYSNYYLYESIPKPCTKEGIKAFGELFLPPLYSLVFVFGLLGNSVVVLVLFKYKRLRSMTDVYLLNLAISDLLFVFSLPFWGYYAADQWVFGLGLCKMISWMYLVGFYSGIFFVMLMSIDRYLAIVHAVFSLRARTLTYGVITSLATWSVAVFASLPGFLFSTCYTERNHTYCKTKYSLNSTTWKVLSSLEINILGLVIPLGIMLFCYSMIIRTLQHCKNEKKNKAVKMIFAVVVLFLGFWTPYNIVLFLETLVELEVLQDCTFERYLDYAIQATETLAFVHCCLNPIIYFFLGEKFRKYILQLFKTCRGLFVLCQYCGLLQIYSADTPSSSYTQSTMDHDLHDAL

[2] = target: T2, Atypical chemokine receptor 1 (Homo sapiens) (UniProt Q16570); test: Antagonist activity at Duffy (unknown origin) assessed as inhibition of calcium flux at 10 uM; format: functional
T2 sequence (whole entry): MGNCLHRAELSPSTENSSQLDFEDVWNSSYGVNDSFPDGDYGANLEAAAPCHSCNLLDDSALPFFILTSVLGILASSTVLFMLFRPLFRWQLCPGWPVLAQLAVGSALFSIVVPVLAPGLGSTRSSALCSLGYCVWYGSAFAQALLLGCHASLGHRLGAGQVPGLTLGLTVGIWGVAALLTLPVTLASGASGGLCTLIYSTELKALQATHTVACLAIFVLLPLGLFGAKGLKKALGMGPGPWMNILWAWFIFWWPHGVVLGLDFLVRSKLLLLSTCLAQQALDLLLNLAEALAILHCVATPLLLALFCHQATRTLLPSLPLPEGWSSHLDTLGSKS

[3] = target: T3, C-X-C chemokine receptor type 5 (Homo sapiens) (UniProt P32302); test: Antagonist activity at CXCR5 (unknown origin) assessed as inhibition of calcium flux at 10 uM; format: functional
T3 sequence (whole entry): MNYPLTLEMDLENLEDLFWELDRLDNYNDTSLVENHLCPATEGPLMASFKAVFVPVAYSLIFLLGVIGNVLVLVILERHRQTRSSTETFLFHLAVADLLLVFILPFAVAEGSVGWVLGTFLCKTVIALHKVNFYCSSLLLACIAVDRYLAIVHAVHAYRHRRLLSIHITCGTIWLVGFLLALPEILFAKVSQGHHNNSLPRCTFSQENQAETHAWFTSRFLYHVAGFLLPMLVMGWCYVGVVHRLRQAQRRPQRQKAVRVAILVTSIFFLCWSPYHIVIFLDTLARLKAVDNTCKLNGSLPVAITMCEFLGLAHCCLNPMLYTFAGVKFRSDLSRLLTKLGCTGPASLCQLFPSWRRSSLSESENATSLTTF

[4] = target: T4, C-C chemokine receptor type 3 (Homo sapiens) (UniProt P51677); test: Antagonist activity at CCR3 (unknown origin) assessed as inhibition of calcium flux at 10 uM; format: functional
T4 sequence (whole entry): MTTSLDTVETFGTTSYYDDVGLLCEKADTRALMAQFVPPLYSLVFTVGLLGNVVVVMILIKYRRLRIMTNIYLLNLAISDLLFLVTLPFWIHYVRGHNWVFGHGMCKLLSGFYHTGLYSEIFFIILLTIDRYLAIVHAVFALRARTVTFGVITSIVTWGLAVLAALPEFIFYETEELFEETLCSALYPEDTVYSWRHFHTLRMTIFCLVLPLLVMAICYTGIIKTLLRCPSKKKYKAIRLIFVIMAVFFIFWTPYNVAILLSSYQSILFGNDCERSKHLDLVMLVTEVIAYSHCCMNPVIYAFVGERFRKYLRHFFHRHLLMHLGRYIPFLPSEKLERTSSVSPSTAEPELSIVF

[5] = target: T5, CX3C chemokine receptor 1 (Homo sapiens) (UniProt P49238); test: Binding affinity to CX3CR1 (unknown origin) at 10 uM by radioligand displacement assay
T5 sequence (whole entry): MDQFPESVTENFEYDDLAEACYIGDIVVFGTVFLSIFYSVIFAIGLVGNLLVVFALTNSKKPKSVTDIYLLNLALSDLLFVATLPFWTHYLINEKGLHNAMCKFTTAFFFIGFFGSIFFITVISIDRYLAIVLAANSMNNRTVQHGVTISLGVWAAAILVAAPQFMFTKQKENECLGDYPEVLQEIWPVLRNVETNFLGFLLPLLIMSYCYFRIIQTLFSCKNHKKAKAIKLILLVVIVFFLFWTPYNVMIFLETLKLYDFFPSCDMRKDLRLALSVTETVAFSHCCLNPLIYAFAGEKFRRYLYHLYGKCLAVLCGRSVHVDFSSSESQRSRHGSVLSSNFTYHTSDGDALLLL

Cytochrome P450 3A4 = Cytochrome P450 3A4 (Homo sapiens, UniProt P08684); test: Competitive inhibition of CYP3A4 (unknown origin); format: ADME
[6] = Oral bioavailability in Beagle dog at 5 mg/kg; format: ADME, organism-based, Canis lupus familiaris; settings: in vivo

Cytochrome P450 3A4, sequence (P08684 whole entry): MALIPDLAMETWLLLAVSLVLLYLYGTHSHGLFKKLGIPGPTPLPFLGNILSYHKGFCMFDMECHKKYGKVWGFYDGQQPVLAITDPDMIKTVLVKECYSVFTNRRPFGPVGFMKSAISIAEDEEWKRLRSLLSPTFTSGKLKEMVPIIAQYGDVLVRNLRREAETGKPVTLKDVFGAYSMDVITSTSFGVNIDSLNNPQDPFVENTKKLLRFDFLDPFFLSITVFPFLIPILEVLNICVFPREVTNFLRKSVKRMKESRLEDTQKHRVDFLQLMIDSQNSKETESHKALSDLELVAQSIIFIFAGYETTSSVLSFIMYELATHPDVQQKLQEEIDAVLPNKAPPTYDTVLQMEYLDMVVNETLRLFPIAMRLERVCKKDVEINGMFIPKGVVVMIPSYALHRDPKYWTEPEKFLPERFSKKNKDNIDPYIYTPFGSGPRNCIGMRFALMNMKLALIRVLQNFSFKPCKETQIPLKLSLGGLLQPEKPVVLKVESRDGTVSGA

In the case of `COc1cc(N2CCN(C(=O)Cn3nc(C(F)(F)F)c(Cl)c3C)CC2)ccc1Cl`, the inhibition [1] is reported as “inactive”, the inhibition [2] is reported as “inactive” and the inhibition [3] is reported as “inactive”. The inhibition [4] was “inactive”, the Activity [5] was “inactive” and the IC50 (Cytochrome P450 3A4) was over 10 µM. For the same compound, the bioavailability [6] was 20%.

— ChEMBL document CHEMBL2321873, “1-(4-Phenylpiperazin-1-yl)-2-(1H-pyrazol-1-yl)ethanones as novel CCR1 antagonists” (Bioorg Med Chem Lett, 2013)
